Laboratory results as given in PubChem BioAssay (NCI).
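Each compound was tested at five concentrations against cells in 96-well plates for 48 hours. TGI denotes the concentration required for complete inhibition of growth.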

Test system: CAKI-1 renal
Test: NCI tumour cell line growth inhibition, 48 h

Compound	TGI [µM]
COC(=O)[C@@]1(C)/C(=N/NS(=O)(=O)c2ccc(C)cc2)CCC[C@@H]1C	> 100
C=C(Nc1nc2ccc(C)cc2s1)C(=O)C(CC)C(=O)C(CC)CC1C(=O)NC(=O)NC1=O (configuration not stated)	> 100
COc1ccc(OC)c(/C=C(/C#N)c2ccccc2)c1	> 100
COC(=O)C(C(=O)Cc1ccccc1[N+](=O)[O-])C(=O)OC	> 100
COCOC1C=CCCCC2=CC(C)=C(CC1)O2 (configuration not stated)	> 100
CCCCC/C=C1\CCC(CN(C)C)C1=O (configuration not stated)	18.4
C=CCN1CCC(O)(c2cc(C(=O)OCC)[nH]c2-c2cc(C)no2)C1 (configuration not stated)	> 100
CN(C)/N=C1/CCC(C(F)(F)F)(C(F)(F)F)O1	> 100
N#Cc1c(-c2ccc(Cl)cc2)c(C#N)c(=O)n(NS(=O)(=O)c2ccccc2)c1O	48
COC(=O)c1nsc(OC)c1Cl	> 100
CNCCCn1c2ccccc2c2c3c(c(-c4ccsc4)cc21)C(=O)NC3=O	2.44
CCOC1c2cc(C(C)C)c(O)c(O)c2[C@@]23CCCC(C)(C)C2C1OC3=O (some centres not stated)	> 100
C=CCN(C(=O)CNC(=O)C(F)(F)F)c1cc(OCc2ccccc2)c2c(c1)c(C)cn2S(=O)(=O)c1ccccc1	> 100
CSc1ccsc1-c1sc(-c2cc(SC)c(-c3sc(-c4cc(SC)c(-c5sccc5SC)s4)cc3SC)s2)cc1SC	34
CS(=O)(=O)c1ccc(-c2cc(-c3ccc(S(C)(=O)=O)cc3)[n+](-c3cc(-c4ccccc4)c([O-])c(-c4ccccc4)c3)c(-c3ccc(S(C)(=O)=O)cc3)c2)cc1	> 100
COC1(OC)CCCc2c1no[n+]2[O-]	> 100
COc1ccc(C(C#N)NNC(=O)Cc2ccccc2)cc1OC (configuration not stated)	> 100
CC(C)=CC1CC(=[N+]=[N-])C(=O)C1(C)C (configuration not stated)	> 100
COc1cccc(C2CC23C(=O)NC(=O)NC3=O)c1 (configuration not stated)	> 100
O=C(CSc1c2ccccc2nc2ccccc12)Nc1ccccc1-c1ccccc1NC(=O)CSc1c2ccccc2nc2ccccc12	> 73.8
CC1(C)OC[C@@H]([C@H](O)C2C=CC(=O)S2)O1 (some centres not stated)	72.4
O=C1c2ccccc2C(=O)c2c1nc1ccccc1c2-c1cncc(-c2c3c(nc4ccccc24)C(=O)c2ccccc2C3=O)c1	71.1
O=S(=O)(c1ccccc1)N1N=C2c3ccccc3CCC[C@H]2C1c1ccccc1 (some centres not stated)	> 100
CCOC(=O)/C(=C/c1ccc(N(C)C)cc1)N(CC)CC	> 100
CC(C)[Si]1(C(C)C)OCC2OC3(CO)C(Oc4nc(=O)ccn43)C2O[Si](C(C)C)(C(C)C)O1 (configuration not stated)	29.4

Test system: CCRF-CEM leukemia
Test: NCI tumour cell line growth inhibition, 48 h

Compound	TGI [µM]
COC(=O)[C@@]1(C)/C(=N/NS(=O)(=O)c2ccc(C)cc2)CCC[C@@H]1C	> 100
C=C(Nc1nc2ccc(C)cc2s1)C(=O)C(CC)C(=O)C(CC)CC1C(=O)NC(=O)NC1=O (configuration not stated)	> 100
COc1ccc(OC)c(/C=C(/C#N)c2ccccc2)c1	62.1
COC(=O)C(C(=O)Cc1ccccc1[N+](=O)[O-])C(=O)OC	> 100
COCOC1C=CCCCC2=CC(C)=C(CC1)O2 (configuration not stated)	> 100
CCCCC/C=C1\CCC(CN(C)C)C1=O (configuration not stated)	18.5
C=CCN1CCC(O)(c2cc(C(=O)OCC)[nH]c2-c2cc(C)no2)C1 (configuration not stated)	> 100
CN(C)/N=C1/CCC(C(F)(F)F)(C(F)(F)F)O1	90.3
N#Cc1c(-c2ccc(Cl)cc2)c(C#N)c(=O)n(NS(=O)(=O)c2ccccc2)c1O	88.6
COC(=O)c1nsc(OC)c1Cl	> 100
CNCCCn1c2ccccc2c2c3c(c(-c4ccsc4)cc21)C(=O)NC3=O	3.24
C=C(C)C1CCC2(C)CC1c1c(c(C)cc3c1[nH]c1ccccc13)O2 (configuration not stated)	> 25
CN(CCN(C)C(=O)CCn1cc(F)c(=O)[nH]c1=O)C(=O)CCn1cc(F)c(=O)[nH]c1=O	> 100
CCOC1c2cc(C(C)C)c(O)c(O)c2[C@@]23CCCC(C)(C)C2C1OC3=O (some centres not stated)	> 100
C=CN1C(=O)[C@H](Oc2ccccc2)[C@@H]1c1ccccc1	> 100
C=CCN(C(=O)CNC(=O)C(F)(F)F)c1cc(OCc2ccccc2)c2c(c1)c(C)cn2S(=O)(=O)c1ccccc1	> 100
CSc1ccsc1-c1sc(-c2cc(SC)c(-c3sc(-c4cc(SC)c(-c5sccc5SC)s4)cc3SC)s2)cc1SC	27
COC1(OC)CCCc2c1no[n+]2[O-]	> 100
COc1ccc(C(C#N)NNC(=O)Cc2ccccc2)cc1OC (configuration not stated)	> 100
CC(C)=CC1CC(=[N+]=[N-])C(=O)C1(C)C (configuration not stated)	> 83.7
COc1cccc(C2CC23C(=O)NC(=O)NC3=O)c1 (configuration not stated)	> 100
O=C(CSc1c2ccccc2nc2ccccc12)Nc1ccccc1-c1ccccc1NC(=O)CSc1c2ccccc2nc2ccccc12	> 78.7
CC1(C)OC[C@@H]([C@H](O)C2C=CC(=O)S2)O1 (some centres not stated)	97.9
O=C1c2ccccc2C(=O)c2c1nc1ccccc1c2-c1cncc(-c2c3c(nc4ccccc24)C(=O)c2ccccc2C3=O)c1	43.9
O=S(=O)(c1ccccc1)N1N=C2c3ccccc3CCC[C@H]2C1c1ccccc1 (some centres not stated)	> 100
CCOC(=O)/C(=C/c1ccc(N(C)C)cc1)N(CC)CC	91.9
CC(C)[Si]1(C(C)C)OCC2OC3(CO)C(Oc4nc(=O)ccn43)C2O[Si](C(C)C)(C(C)C)O1 (configuration not stated)	24.6

Test system: HL-60(TB) leukemia
Test: NCI tumour cell line growth inhibition, 48 h

Compound	TGI [µM]
COC(=O)[C@@]1(C)/C(=N/NS(=O)(=O)c2ccc(C)cc2)CCC[C@@H]1C	> 100
C=C(Nc1nc2ccc(C)cc2s1)C(=O)C(CC)C(=O)C(CC)CC1C(=O)NC(=O)NC1=O (configuration not stated)	> 100
COc1ccc(OC)c(/C=C(/C#N)c2ccccc2)c1	19.6
COC(=O)C(C(=O)Cc1ccccc1[N+](=O)[O-])C(=O)OC	> 100
CCCCC/C=C1\CCC(CN(C)C)C1=O (configuration not stated)	30.3
C=CCN1CCC(O)(c2cc(C(=O)OCC)[nH]c2-c2cc(C)no2)C1 (configuration not stated)	> 100
CN(C)/N=C1/CCC(C(F)(F)F)(C(F)(F)F)O1	54.8
N#Cc1c(-c2ccc(Cl)cc2)c(C#N)c(=O)n(NS(=O)(=O)c2ccccc2)c1O	41.3
COC(=O)c1nsc(OC)c1Cl	> 100
CNCCCn1c2ccccc2c2c3c(c(-c4ccsc4)cc21)C(=O)NC3=O	4
C=C(C)C1CCC2(C)CC1c1c(c(C)cc3c1[nH]c1ccccc13)O2 (configuration not stated)	> 25
CN(CCN(C)C(=O)CCn1cc(F)c(=O)[nH]c1=O)C(=O)CCn1cc(F)c(=O)[nH]c1=O	> 100
CCOC1c2cc(C(C)C)c(O)c(O)c2[C@@]23CCCC(C)(C)C2C1OC3=O (some centres not stated)	> 100
CSc1ccsc1-c1sc(-c2cc(SC)c(-c3sc(-c4cc(SC)c(-c5sccc5SC)s4)cc3SC)s2)cc1SC	8.9
COC1(OC)CCCc2c1no[n+]2[O-]	> 100
COc1ccc(C(C#N)NNC(=O)Cc2ccccc2)cc1OC (configuration not stated)	> 100
CC(C)=CC1CC(=[N+]=[N-])C(=O)C1(C)C (configuration not stated)	> 100
COc1cccc(C2CC23C(=O)NC(=O)NC3=O)c1 (configuration not stated)	> 100
O=C(CSc1c2ccccc2nc2ccccc12)Nc1ccccc1-c1ccccc1NC(=O)CSc1c2ccccc2nc2ccccc12	18.7
CC1(C)OC[C@@H]([C@H](O)C2C=CC(=O)S2)O1 (some centres not stated)	> 100
O=C1c2ccccc2C(=O)c2c1nc1ccccc1c2-c1cncc(-c2c3c(nc4ccccc24)C(=O)c2ccccc2C3=O)c1	18.3
O=S(=O)(c1ccccc1)N1N=C2c3ccccc3CCC[C@H]2C1c1ccccc1 (some centres not stated)	> 100
CCOC(=O)/C(=C/c1ccc(N(C)C)cc1)N(CC)CC	81
CC(C)[Si]1(C(C)C)OCC2OC3(CO)C(Oc4nc(=O)ccn43)C2O[Si](C(C)C)(C(C)C)O1 (configuration not stated)	27.1

Test system: HT29 colon
Test: NCI tumour cell line growth inhibition, 48 h

Compound	TGI [µM]
COC(=O)[C@@]1(C)/C(=N/NS(=O)(=O)c2ccc(C)cc2)CCC[C@@H]1C	> 100
COc1ccc(OC)c(/C=C(/C#N)c2ccccc2)c1	> 100
COC(=O)C(C(=O)Cc1ccccc1[N+](=O)[O-])C(=O)OC	> 100
COCOC1C=CCCCC2=CC(C)=C(CC1)O2 (configuration not stated)	> 100
CCCCC/C=C1\CCC(CN(C)C)C1=O (configuration not stated)	62.3
C=CCN1CCC(O)(c2cc(C(=O)OCC)[nH]c2-c2cc(C)no2)C1 (configuration not stated)	> 100
CN(C)/N=C1/CCC(C(F)(F)F)(C(F)(F)F)O1	> 100
N#Cc1c(-c2ccc(Cl)cc2)c(C#N)c(=O)n(NS(=O)(=O)c2ccccc2)c1O	> 100
COC(=O)c1nsc(OC)c1Cl	> 100
CNCCCn1c2ccccc2c2c3c(c(-c4ccsc4)cc21)C(=O)NC3=O	2.56
C=C(C)C1CCC2(C)CC1c1c(c(C)cc3c1[nH]c1ccccc13)O2 (configuration not stated)	> 25
CN(CCN(C)C(=O)CCn1cc(F)c(=O)[nH]c1=O)C(=O)CCn1cc(F)c(=O)[nH]c1=O	> 100
CCOC1c2cc(C(C)C)c(O)c(O)c2[C@@]23CCCC(C)(C)C2C1OC3=O (some centres not stated)	> 100
C=CN1C(=O)[C@H](Oc2ccccc2)[C@@H]1c1ccccc1	69.4
C=CCN(C(=O)CNC(=O)C(F)(F)F)c1cc(OCc2ccccc2)c2c(c1)c(C)cn2S(=O)(=O)c1ccccc1	> 100
CSc1ccsc1-c1sc(-c2cc(SC)c(-c3sc(-c4cc(SC)c(-c5sccc5SC)s4)cc3SC)s2)cc1SC	> 100
CS(=O)(=O)c1ccc(-c2cc(-c3ccc(S(C)(=O)=O)cc3)[n+](-c3cc(-c4ccccc4)c([O-])c(-c4ccccc4)c3)c(-c3ccc(S(C)(=O)=O)cc3)c2)cc1	> 100
COC1(OC)CCCc2c1no[n+]2[O-]	> 100
COc1ccc(C(C#N)NNC(=O)Cc2ccccc2)cc1OC (configuration not stated)	> 100
CC(C)=CC1CC(=[N+]=[N-])C(=O)C1(C)C (configuration not stated)	> 31.6
COc1cccc(C2CC23C(=O)NC(=O)NC3=O)c1 (configuration not stated)	> 100
O=C(CSc1c2ccccc2nc2ccccc12)Nc1ccccc1-c1ccccc1NC(=O)CSc1c2ccccc2nc2ccccc12	> 100
CC1(C)OC[C@@H]([C@H](O)C2C=CC(=O)S2)O1 (some centres not stated)	55.5
O=C1c2ccccc2C(=O)c2c1nc1ccccc1c2-c1cncc(-c2c3c(nc4ccccc24)C(=O)c2ccccc2C3=O)c1	27.8
O=S(=O)(c1ccccc1)N1N=C2c3ccccc3CCC[C@H]2C1c1ccccc1 (some centres not stated)	> 100
CC(C)[Si]1(C(C)C)OCC2OC3(CO)C(Oc4nc(=O)ccn43)C2O[Si](C(C)C)(C(C)C)O1 (configuration not stated)	27.2

Test system: IGROV1 ovarian
Test: NCI tumour cell line growth inhibition, 48 h

Compound	TGI [µM]
COC(=O)[C@@]1(C)/C(=N/NS(=O)(=O)c2ccc(C)cc2)CCC[C@@H]1C	> 100
C=C(Nc1nc2ccc(C)cc2s1)C(=O)C(CC)C(=O)C(CC)CC1C(=O)NC(=O)NC1=O (configuration not stated)	> 100
COc1ccc(OC)c(/C=C(/C#N)c2ccccc2)c1	> 100
COC(=O)C(C(=O)Cc1ccccc1[N+](=O)[O-])C(=O)OC	> 100
COCOC1C=CCCCC2=CC(C)=C(CC1)O2 (configuration not stated)	> 100
CCCCC/C=C1\CCC(CN(C)C)C1=O (configuration not stated)	32.6
C=CCN1CCC(O)(c2cc(C(=O)OCC)[nH]c2-c2cc(C)no2)C1 (configuration not stated)	> 100
CN(C)/N=C1/CCC(C(F)(F)F)(C(F)(F)F)O1	82.7
N#Cc1c(-c2ccc(Cl)cc2)c(C#N)c(=O)n(NS(=O)(=O)c2ccccc2)c1O	> 100
COC(=O)c1nsc(OC)c1Cl	> 100
